As a reminder, the pIC50 is the negative decadic logarithm of the IC50, by convention in mol/L. The term IC90 denotes the concentration needed for an effect of 90%.

Drawing on ChEMBL document CHEMBL4483862, “Open-source discovery of chemical leads for next-generation chemoprotective antimalarials” (2018), this text covers IC50 and IC90 for 37 compounds.

In this test the test system is Plasmodium berghei. Put plainly: Luciferase/luciferin-expressing antifolate-resistant parasites were used to infect a culture of HepG2 cells that were pre-incubated with compounds. Infected hepatocytes emit light due to the luciferase reaction. Assay results are presented as the percent inhibition of light emission compared to control. […]. In kind it is functional. Particulars: sporozoite; for IC90: read-out: LUCIFERASE INFECTION ASSAY - IC90.

Where [1] appears, read: read-out: LUCIFERASE INFECTION ASSAY - IC50.

pIC50: −log10 of the molar value. Where only a bound is given, the exact number is not on record here.

Take `N#Cc1ncn(-c2nc(-c3ccccn3)nc3sc(-c4ccccc4)cc23)n1`: the 90% effect concentration (IC90) amounted to 7.91 µM. The pIC50 (HEPG2TOX_HILL_SLOPE 1.72, HEPG2TOX_R_SQUARED 0.411, PBLUC_HILL_SLOPE 3.83, PBLUC_R_SQUARED 0.832, read-out: LUCIFERASE INFECTION ASSAY - IC50) is 5.35.

For the compound `Cc1csc(CNc2nc(-c3cccnc3)nc3sc(C)c(C)c23)n1`, the IC90 came out at 5.63 µM. The pIC50 (PBLUC_HILL_SLOPE 1.92, PBLUC_R_SQUARED 0.84, read-out: LUCIFERASE INFECTION ASSAY - IC50) is 5.75.

Regarding `CCOCc1c(C(=O)Nc2ccccc2N2CCN(C)CC2)oc2ccccc12`, the IC90 is 7.05 µM. Further, the pIC50 (PBLUC_HILL_SLOPE 0.969, 2.85, PBLUC_R_SQUARED 0.516, 0.696, read-out: LUCIFERASE INFECTION ASSAY - IC50) was 5.55.

With `CN(CCOc1ccc(Br)cc1)C(=O)c1[nH]nc2ccccc12`, the IC90 was > 10 µM. For the same compound, the pIC50 (PBLUC_HILL_SLOPE 4.37, PBLUC_R_SQUARED 0.302, read-out: LUCIFERASE INFECTION ASSAY - IC50) is 5.17.

Take `Cc1ccc(Cn2c(NCc3cccs3)nc3ccccc32)cc1`: the IC90 is > 9.9 µM. Besides, the pIC50 (PBLUC_HILL_SLOPE 9.45, PBLUC_R_SQUARED 0.348, read-out: LUCIFERASE INFECTION ASSAY - IC50) is 5.09.

For the compound `O=C(NNC(=O)c1cnc2ccccc2n1)c1ccccc1`, the IC90 turned out to be 9.09 µM. Moreover, for the setting “HEPG2TOX_HILL_SLOPE 2.59, HEPG2TOX_R_SQUARED 0.855, PBLUC_HILL_SLOPE 4.42, PBLUC_R_SQUARED 0.625, read-out: LUCIFERASE INFECTION ASSAY - IC50”, the pIC50 was 5.26.

As for `Cc1ccc(Nc2nccc(C(F)(F)F)n2)cc1S(=O)(=O)N(C)C`, the IC90 was > 10 µM. Where the note is “HEPG2TOX_HILL_SLOPE 1.28, HEPG2TOX_R_SQUARED 0.583, PBLUC_HILL_SLOPE 1.84, 1.48, PBLUC_R_SQUARED 0.674, 0.430, read-out: LUCIFERASE INFECTION ASSAY - IC50”, the pIC50 was 5.30.

As for `CNC(=S)Nc1ccc(-n2cnc3ccccc32)cc1`, the IC90 is > 10 µM. The pIC50 under setting [1] is < 5.00.

As to `O=C1/C(=C/c2ccc(C(F)(F)F)cc2)CCC/C1=C\c1ccc(C(F)(F)F)cc1`, the IC90 is 7.87 µM. Moreover, the pIC50 (HEPG2TOX_HILL_SLOPE 11.7, HEPG2TOX_R_SQUARED 0.984, PBLUC_HILL_SLOPE 3.19, PBLUC_R_SQUARED 0.77, read-out: LUCIFERASE INFECTION ASSAY - IC50) is 5.40.

Turning to `Cc1ccc2nc(CN3CCCCC3c3nc4ccccc4s3)cn2c1` (centres undefined), the IC90 is > 10 µM. The pIC50 under setting [1] is < 5.00.

Take `CC(Sc1nc2ncccn2n1)C(=O)N1c2ccccc2CC1C` (centres undefined): the IC90 was > 10 µM. For the same compound, the pIC50 (FFLUC_HILL_SLOPE 10.4, FFLUC_R_SQUARED 0.228, read-out: LUCIFERASE INFECTION ASSAY - IC50) was < 5.00.

Consider `COc1ccc(C(=O)N2CCN(C(c3ccc(F)cc3)c3ccc(F)cc3)CC2)cc1S(=O)(=O)NCCN(C)C`, for which the IC90 is > 10 µM. For the same compound, the pIC50 under setting [1] is < 5.00.

On to `Cc1ccc(-c2cs/c(=N\CCN3CCOCC3)n2/N=C/c2cccs2)cc1C`, for which the IC90 was > 10 µM. Also, the pIC50 (HEPG2TOX_HILL_SLOPE 0.856, HEPG2TOX_R_SQUARED 0.317, read-out: LUCIFERASE INFECTION ASSAY - IC50) is < 5.00.

In the case of `Cc1ccc(N/N=C(\C=N\N)C(=O)c2ccc(Cl)cc2)cc1`, the IC90 is > 10.5 µM. Besides, the pIC50 (HEPG2TOX_HILL_SLOPE 1.68, HEPG2TOX_R_SQUARED 0.854, PBLUC_HILL_SLOPE 3.07, PBLUC_R_SQUARED 0.149, read-out: LUCIFERASE INFECTION ASSAY - IC50) was 5.29.

For the compound `CCCN(CCC)C(=S)NC(=O)c1cccc([N+](=O)[O-])c1`, the IC90 is > 10.7 µM. Further, the pIC50 (PBLUC_HILL_SLOPE 0.519, PBLUC_R_SQUARED 0.204, read-out: LUCIFERASE INFECTION ASSAY - IC50) was < 4.97.

For `CNc1nc2cnc(Nc3cccc(C)c3)cc2n1-c1cc(OC)c(OC)c(OC)c1`, the IC90 was > 10 µM. The pIC50 under setting [1] is < 5.00.

For the compound `CC12CCC(CC1=O)C2(C)C` (centres undefined) [CAMPHOR], the IC90 was > 21.7 µM. Also, the pIC50 (FFLUC_HILL_SLOPE 14.9, FFLUC_R_SQUARED 0.342, read-out: LUCIFERASE INFECTION ASSAY - IC50) is < 4.66.

As for `O=C1/C(=C/c2ccc3c(c2)OCO3)CCCc2ccccc21`, the IC90 was > 11.3 µM. Also, the pIC50 (HEPG2TOX_HILL_SLOPE 8.25, HEPG2TOX_R_SQUARED 0.793, PBLUC_HILL_SLOPE 3.07, PBLUC_R_SQUARED 0.361, read-out: LUCIFERASE INFECTION ASSAY - IC50) was < 4.95.

`Cc1cccc(-c2cc(NC=O)c3ncc(-c4ccc(S(C)(=O)=O)cc4)n3c2)c1`: the IC90 is > 8.14 µM. For the same compound, the pIC50 (FFLUC_HILL_SLOPE 0.295, FFLUC_R_SQUARED 0.0341, HEPG2TOX_HILL_SLOPE 11.3, HEPG2TOX_R_SQUARED 0.289, read-out: LUCIFERASE INFECTION ASSAY - IC50) was < 5.09.

On to `COC(=O)c1sc(N)c(C(=O)OC)c1COC(=O)/C=C/c1ccc(OC(F)F)cc1`, for which the IC90 is > 10 µM. The pIC50 (FFLUC_HILL_SLOPE 15.7, FFLUC_R_SQUARED 0.211, read-out: LUCIFERASE INFECTION ASSAY - IC50) was < 5.00.

`O=C(NCc1cc(Cl)cc(Cl)c1)c1cc(C(F)(F)F)cc(C(F)(F)F)c1`: the IC90 was > 7.93 µM. Besides, the pIC50 under setting [1] was < 5.10.

Turning to `Cc1cc(C)c(-c2csc(NC(=O)Cc3ccccc3)n2)c(C)c1`, the IC90 amounted to 3.56 µM. Further, the pIC50 under setting [1] was 5.55.

As for `COc1ccc(-c2cnc3ccc(-c4cccc(F)c4)nn23)cc1OC`, the IC90 came out at 1.27 µM. For the same compound, the pIC50 (HEPG2TOX_HILL_SLOPE 3.03, HEPG2TOX_R_SQUARED 0.965, PBLUC_HILL_SLOPE 7.81, PBLUC_R_SQUARED 0.531, read-out: LUCIFERASE INFECTION ASSAY - IC50) was 6.02.

As for `CCC(C)c1ccccc1OS(=O)(=O)c1ccc2c(c1)NC(=O)CO2` (centres undefined), the IC90 was > 10 µM. Moreover, the pIC50 under setting [1] was < 5.00.

For `Cc1cccc(CNc2nc3cnc(-c4cccc(Oc5ccccc5)c4)cc3n2C)c1`, the IC90 is 3.88 µM. The pIC50 (FFLUC_HILL_SLOPE 2.46, FFLUC_R_SQUARED 0.608, HEPG2TOX_HILL_SLOPE 16, HEPG2TOX_R_SQUARED 0.341, PBLUC_HILL_SLOPE 8.58, PBLUC_R_SQUARED 0.684, read-out: LUCIFERASE INFECTION ASSAY - IC50) is 5.52.

`CCC(C)NC(=O)c1c(NC(=O)c2cc(F)ccc2F)nc2ccc(C)cn12` (centres undefined): the IC90 is 3.36 µM. Moreover, the pIC50 (HEPG2TOX_HILL_SLOPE 5, HEPG2TOX_R_SQUARED 0.803, PBLUC_HILL_SLOPE 11.7, PBLUC_R_SQUARED 0.232, read-out: LUCIFERASE INFECTION ASSAY - IC50) is 5.56.

For `CC/C(=N\NC(=O)COc1cccc(Br)c1)c1cc(F)ccc1O`, the IC90 came to 9.51 µM. In addition, the pIC50 (HEPG2TOX_HILL_SLOPE 1.42, HEPG2TOX_R_SQUARED 0.962, PBLUC_HILL_SLOPE 3.55, PBLUC_R_SQUARED 0.0785, read-out: LUCIFERASE INFECTION ASSAY - IC50) was 5.29.

With `COc1ccc(-n2nc(C)c3c(O)c4c(nc32)CCCC4)cc1`, the IC90 is > 10.7 µM. Moreover, the pIC50 (HEPG2TOX_HILL_SLOPE 2.37, HEPG2TOX_R_SQUARED 0.552, read-out: LUCIFERASE INFECTION ASSAY - IC50) was < 4.97.

As to `Clc1ccccc1-c1nc2ccnc(NCc3ccccc3)c2[nH]1`, the IC90 is 4.04 µM. Further, the pIC50 (HEPG2TOX_HILL_SLOPE 1.64, HEPG2TOX_R_SQUARED 0.835, PBLUC_HILL_SLOPE 9.56, PBLUC_R_SQUARED 0.749, read-out: LUCIFERASE INFECTION ASSAY - IC50) is 5.49.

Turning to `COc1ccc(/C=C(/C(=O)Nc2ccc(Cl)cc2)c2nc3ccccc3s2)cc1O`, the IC90 came out at 4.29 µM. Further, the pIC50 (HEPG2TOX_HILL_SLOPE 8.13, HEPG2TOX_R_SQUARED 0.744, PBLUC_HILL_SLOPE 10.1, PBLUC_R_SQUARED 0.615, read-out: LUCIFERASE INFECTION ASSAY - IC50) was 5.46.

`CC(OC(=O)c1cc([N+](=O)[O-])ccc1N(C)C)C(=O)Nc1ccc(Cl)cn1` (centres undefined): the IC90 is 1.83 µM. For the setting “HEPG2TOX_HILL_SLOPE 1.79, HEPG2TOX_R_SQUARED 0.979, PBLUC_HILL_SLOPE 1.96, PBLUC_R_SQUARED 0.845, read-out: LUCIFERASE INFECTION ASSAY - IC50”, the pIC50 was 6.22.

`COc1ccc(-n2ccnc2SCc2nc(N)c3ccccc3n2)cc1`: the IC90 was > 10 µM. Besides, the pIC50 under setting [1] was < 5.00.

For `CCOC(=O)c1nn(CC2CC2)c2c1CN(CC(C)Cc1ccc3c(c1)OCO3)CC2` (centres undefined), the IC90 is > 7.76 µM. Further, the pIC50 under setting [1] was < 5.11.

On to `COc1ccc(-c2cnc3cnc(-c4ccc(CO)cc4)cn23)cn1`, for which the IC90 was 9.63 µM. Besides, for the setting “PBLUC_HILL_SLOPE 6.35, PBLUC_R_SQUARED 0.601, read-out: LUCIFERASE INFECTION ASSAY - IC50”, the pIC50 is 5.17.

Consider `O=C1CSC(=O)N1CCN=Cc1c(O)n(-c2ccc(Cl)cn2)c(=O)c2ccccc12`, for which the IC90 was > 10 µM. Also, the pIC50 under setting [1] is < 5.00.

As for `CC1=NN(c2ccc(C)c(Cl)c2)C(=O)/C1=C\c1ccc2c(c1)OCO2`, the IC90 was > 9.3 µM. Under setting [1], the pIC50 was < 5.03.

`FC(F)(F)c1cc(/C=N/Nc2c(Cl)cc(C(F)(F)F)cc2Cl)cc(C(F)(F)F)c1`: the IC90 was determined as 6.93 µM. For the same compound, the pIC50 (HEPG2TOX_HILL_SLOPE 9.76, HEPG2TOX_R_SQUARED 0.862, PBLUC_HILL_SLOPE 9.4, PBLUC_R_SQUARED 0.388, read-out: LUCIFERASE INFECTION ASSAY - IC50) is 5.26.
